# Assay results: article PMC6084929, “Differential effects of angiotensin II type I receptor blockers on reducing intraocular pressure and TGFβ signaling in the mouse retina” (PLoS ONE, 2018)
# What was measured:
# [1] = system: mouse model of normotensive glaucoma; design: method as in PMID 25032856; conditions: cited from earlier work
# [2] = system: rat model with IOP elevation; design: method as in PMID 19608537; conditions: oral; cited from earlier work
# C57BL/6J mice [3] = assay: IOP measurement with Tonolab rebound tonometer in ARB-treated mice; assay type: in vivo, mouse; conditions: for Change in IOP compared to normal chow control / Average reduction of the median IOP / Rate of IOP reduction compared to control: 2 g/kg in chow; for Change in IOP compared to normal chow control: after 3 and 7 days of treatment; for Average reduction of the median IOP: compared to day 0; for Rate of IOP reduction compared to control: slope between days 3 and 7; for Median IOP at day 0: before start of chow treatment, by treatment group
# Procedure: IOP of mice anesthetized with 2.5% isoflurane in oxygen delivered at 1.5 L/min by an inhalation anesthesia system (Vet Equip, Livermore, CA, USA) was measured using a Tonolab rebound tonometer (Icare, Vantaa, Finland) following manufacturer’s recommendations by an operator blinded to the treatment status of the mice. Measurements were performed within 3 mins of immobilization to minimize isoflurane-induced IOP changes and at the same time of day (1:00–3:00 p.m.) to avoid diurnal variation.
# (§1) Sample sizes were not pre-determined by statistical methods, but are similar to or exceed numbers typical of similar experiments. The IOP changes of treated mice relative to the IOP changes of normal chow fed mice were presented with mean and 95% confidence interval based on t-statistics. A linear regression model for BP change from baseline was used to study effects of ARBs on BP, adjusting for baseline BP. For comparing IOP in groups of mice untreated or treated with ARBs for 3 and 7 days, a mixed effects model that included baseline IOP, left versus right eye, time of measurement and interaction between time and drug with random effects of intercept and slope within individual mice was used, adjusting for correlation between left and right eye within the same mouse, as well as repeated measurements over time. A one-way ANOVA was used for comparing chow pSmad2 fluorescence of mice untreated or treated with ARBs. The models for BP, IOP, and pSmad2 fluorescence were followed by Dunnett’s method for multiple comparisons correction. Differences in the change in IOP for each drug, relative to change in IOP of normal-fed control were evaluated at day 3 and day 7 of treatment, and differences in the rate of change in IOP were evaluated as the slope of the line defined by relative change at days 3 and 7. Corrected p-values < 0.05 were considered significant. Linear regression and mixed effect model analysis was performed with R 3.4.1 (R Core Team. R: A language and environment for statistical computing. R Foundation for Statistical Computing, Vienna, Austria. URL http://www.R-project.org/, 2013). All other statistical analysis was performed using GraphPad Prism version 7.00 for Windows software (GraphPad Software, La Jolla, CA, USA).
# [4] = Solubilization in unbuffered water; assay type: physicochemical; conditions: attempt to solubilize for drinking water delivery
# AT1R = target: AT1R; design: method as in PMID 20603272; conditions: cited from earlier work
# TGFβ signaling (pSmad2) = assay: pSmad2 immunohistochemistry of the retina (RGC layer) as read-out of TGFβ signaling; assay type: in vivo, mouse; conditions: 2 g/kg in chow, 7 days, 3 days
# Procedure: Eyes were enucleated and post-fixed in PBS/PFA for an additional 24–48 h and embedded in paraffin. Five micron-thick sections were deparaffinized, incubated at 90°C for 30 mins in 10 mM sodium citrate buffer, pH 6.0 for epitope retrieval and then incubated for 2 h at room temperature in blocking solution (PBS/5% normal donkey serum/1% BSA/0.1% Tween-20). Sections were then incubated with rabbit polyclonal antibody to pSmad2 (1:100, Thermo Fisher Scientific, MA, USA) in blocking solution overnight at 4°C in a humidified chamber. Following three 5 min washes in wash solution (PBS/0.1% Tween-20), sections were incubated in AlexaFluor-546 labeled donkey anti-rabbit IgG diluted 1:1000 in blocking solution for 2 h at room temperature in a dark humidified chamber. Sections were washed again three times for 5 mins each in wash solution and cover-slipped with Prolong Gold Antifade with DAPI mounting medium (Thermo Fisher Scientific). Sections were imaged using a Nikon AZ 100M upright, wide-field microscope using a 5x Plan Fluor/0.5 NA air objective and captured with a Nikon DS-Ri1 color camera (Nikon Instruments, Melville, NY, USA). Retinal images were acquired adjacent to the optic nerve head. Immunostaining and imaging experiments using the right eye of each mouse were carried out in batches of sections that included samples from two vehicle-fed mice and two samples each from losartan, irbesartan and telmisartan-fed mice using identical image acquisition parameters within each batch. Immunostaining and imaging experiments were carried out twice for each batch of samples. Mean fluorescence intensity of pSmad2 immunofluorescence was quantified using FIJI (ImageJ) biological image analysis package. Background-subtracted mean fluorescence intensity of the RGC layer was determined by subtracting the mean background intensity within the adjacent inner plexiform layer from the mean fluorescence intensity within a mask drawn around the RGC layer. Normalized background-subtracted mean fluorescence intensity within each batch of samples was determined by dividing the background-subtracted mean fluorescence intensity of each sample by the average of the background-subtracted mean fluorescence intensities of the two vehicle-fed control samples. For each mouse, normalized background-subtracted mean fluorescence intensity was determined as the average of duplicate experiments and is presented as normalized mean fluorescence.
# C57BL/6J mice [5] = assay: Systolic BP by tail-cuff method in ARB-treated mice; assay type: in vivo, mouse; conditions: 2 g drug/kg chow, day 3; p < 10^-4
# Procedure: as §1, with “BP was measured by the tail-cuff method (BP 2000 Blood Pressure Analysis System, Visitech Systems, Apex, NC, USA) according to manufacturer recommendations and as previously described by an operator blinded to the treatment status of the mice. In brief, mice were restrained and their tail placed through an inflatable tail cuff held in place by adhesive tape. […] Mice were conditioned to the system prior to experimental measurements by being subjected to the full recording procedure daily for several days. Acclimation and BP measurements were performed between 9:00 and 11:00 a.m. Since diastolic measurements are inherently inaccurate with this method, only systolic BP is reported here. […] Sample” for “Sample”, “Corrected p-values < 0.05 were considered significant. Linear regression and mixed effect model analysis was performed with R 3.4.1 (R Core Team. R: A language and environment for statistical computing. R Foundation for Statistical Computing, Vienna, Austria. URL http://www.R-project.org/, 2013). All other statistical analysis was performed using GraphPad Prism version 7.00 for Windows software (GraphPad Software, La Jolla, CA, USA).” left out
# CD1 mice = conditions: cited from earlier work
# [6] = system: rabbit eyes with induced IOP elevation; design: method as in PMID 10942157; conditions: eye drops of 0.1% losartan in saline; cited from earlier work
# [7] = system: human glaucoma patients with elevated IOP, and normal controls; conditions: 50 mg oral dose; cited from earlier work
# [8] = system: monkeys with laser-induced IOP elevation; design: method as in PMID 15862169; conditions: cited from earlier work
# [9] = system: rabbits with experimental and inherited elevated IOP; design: method as in PMID 11840352; conditions: cited from earlier work
# [10] = design: method as in PMID 23487168; conditions: cited from earlier work
Solubility in unbuffered water [4],Structure (SMILES),Change in IOP compared to normal chow control (C57BL/6J mice [3]),Average reduction of the median IOP (C57BL/6J mice [3]) [%],Rate of IOP reduction compared to control (C57BL/6J mice [3]),Median IOP at day 0 (C57BL/6J mice [3]),Kd (AT1R) [nM],Effect on pSmad2 fluorescence of the RGC layer (TGFβ signaling (pSmad2)),Systolic BP compared to mice fed normal chow (C57BL/6J mice [5]),further results
,CCOc1nc2cccc(C(=O)O)c2n1Cc1ccc(-c2ccccc2-c2nnn[nH]2)cc1 [candesartan],,,,,,,,Effect on IOP ([1]; 10 mg/kg/day by oral gavage): no effect on IOP; Effect on RGCs and inner retina ([1]; orally administered): reduced loss of RGCs and thinning of the inner retina; Effect on IOP [2]: did not affect IOP; Effect on RGC loss [2]: reduced RGC loss
readily precipitated out of solution,CCCCC1=NC2(CCCC2)C(=O)N1Cc1ccc(-c2ccccc2-c2nnn[nH]2)cc1 [irbesartan],significant decreases in IOP,15.4,significantly greater than control,17.0,~2,no significant effect,significantly lower BP,
,"CCCCc1nc(Cl)c(CO)n1Cc1ccc(-c2ccccc2-c2nn[nH]n2)cc1 [losartan, Losartan potassium]",did not significantly lower IOP,,no significant effect,16.9,~10,no significant effect,significantly lower BP,"Effect on IOP (CD1 mice; 0.6 g/L in drinking water, normotensive eyes or eyes with microbead-induced elevated IOP): no effect on IOP; Effect on RGCs (CD1 mice; oral via drinking water, eyes with elevated IOP induced by microbead injection): neuroprotective effect for RGCs; IOP after losartan treatment (C57BL/6J mice [3]; 1.2 g/L losartan in drinking water, 3 days, 10 female C57BL/6 mice 1 year of age, right eye, mean +/-SD, p = 0.4): 15.4 +/- 1.9 mmHg; Effect on IOP (C57BL/6J mice [3]; 1.2 g/L losartan in drinking water, 3 days, normal mice): did not affect IOP; IOP before losartan treatment (baseline) (C57BL/6J mice [3]; 1.2 g/L losartan in drinking water, 10 female C57BL/6 mice 1 year of age, right eye, mean +/-SD): 14.8 +/-1.4 mmHg; Effect on IOP [6]: IOP-lowering effects; Mean reduction of IOP [7]: ≤ 16%"
,CCCc1nc(C(C)(C)O)c(C(=O)O)n1Cc1ccc(-c2ccccc2-c2nnn[nH]2)cc1 [olmesartan],,,,,,,,Effect on IOP [8]: IOP-lowering effects; Effect on IOP [9]: IOP-lowering effects
readily precipitated out of solution,CCCc1nc2c(C)cc(-c3nc4ccccc4n3C)cc2n1Cc1ccc(-c2ccccc2C(=O)O)cc1 [telmisartan],significant decreases in IOP,13.3,significantly greater than control,16.7,,significantly reduced,significantly lower BP,Reduction of pSmad2 fluorescence in the RGC layer compared to normal fed mice (TGFβ signaling (pSmad2); p = 0.034): 70%; Lipophilicity [10]: most lipophilic ARB
